The text below walks through data of US20090048314A1, “TREATMENT OF DUCHENNE MUSCULAR DYSTROPHY” (priority 2007, published 2009).

The subject of data set [1] is Utrophin A promoter. In words: Luciferase reporter assay (murine H2K cells). It is filed as cell-based, mouse. To be noted: H2K/mdx/Utro A reporter cells, final concentration 10 μM, 48 hrs. How it is done:
The cell line used for the screen is an immortalized mdx mouse H2K cell line that has been stably transfected with a plasmid containing 5 kb fragment of the Utrophin A promoter including the first untranslated exon linked to a luciferase reporter gene (see FIG. 26). Under conditions of low temperature and interferon containing media, the cells remain as myoblasts. These are plated into 96 well plates and cultured in the presence of compound for three days. The level of luciferase is then determined by cell lysis and reading of the light output from the expressed luciferase gene utilising a plate luminometer. The H2K/mdx/Utro A reporter cell line was passaged twice a week until ≦30% confluent. The cells were grown at 33° C. in the presence of 10% CO2 To remove the myoblasts for platting, they were incubated with Trypsin/EDTA until the monolayer started to detach. The H2K/mdx/Utro A reporter cell line cells were plated out into 96 well plates (Falcon 353296, white opaque) at a density of approximately 5000 cells/well in 190 μl normal growth medium. The plates were then incubated at 33° C. in the presence of 10% CO2 for 24 hrs. […] The plates were then incubated for a further 48 hrs Cells were then lysed in situ following the manufacture's protocols (Promega Steady-Glo Luciferase Assay System (E2520). Then counted for 10 seconds using a plate luminometer (Victor1420).
A general note: A reporter such as luciferase makes a cellular process visible.

Data set [2] in a line: Slurrying experiment (single form) in methanol, thermodynamic stability. It is filed as physicochemical. To be noted: for polymorphic form after slurrying (XRPD): slurried in methanol for four days at 25° C. How it is done:
The stability of the various solid forms of 5-(ethylsulfonyl)-2-(naphthalen-2-yl)benzo[d]oxazole was investigated by stirring samples of each and mixtures thereof in methanol for defined time periods.
Approximately 10 mg of two polymorphic forms was slurried in 0.25 ml of methanol for 4 days at either room temperature or 60° C. The supernatant liquor was then removed and the resulting solid was dried under vacuum for 24 hrs.
Approximately 2 mg of sample was gently compressed on the XRPD zero back ground single obliquely cut silica sample holder. The sample was then loaded into a Philips X-Pert MPD diffractometer and analysed using the following experimental conditions:
Tube anode: Cu Generator tension: 40 kV Tube current: 40 mA Wavelength alpha1: 1.5406 A Wavelength alpha2: 1.5444 A Start angle [2θ]: 5 End angle [2θ]: 35 Time per step: 2.5 seconds Scan step size: 0.06

SMILES strings stand for the structures.

In the case of `CCS(=O)(=O)c1ccc2oc(-c3ccc4ccccc4c3)nc2c1` [5-(ethylsulfonyl)-2-(naphthalen-2-yl)benzo[d]oxazole], the “Biological activity in luciferase reporter assay relative to control” value in data set [1] is “+++ (Between 301% and 400% relative to control)”.

Consider `CCS(=O)(=O)c1ccc2oc(-c3ccc4ccccc4c3)nc2c1` [polymorphic form 1, 5-(ethylsulfonyl)-2-(naphthalen-2-yl)benzo[d]oxazole], for which the results for the “polymorphic form after slurrying (XRPD)” value in data set [2] and in data set [2] (listed as Polymorphic form 1) were “retains its structure” and “no change in the polymorphic form”, respectively. The “stability compared with previously known forms” value in data set [2] (stirring in methanol) is reported as “increased stability”.

Turning to `CCS(=O)(=O)c1ccc2oc(-c3ccc4ccccc4c3)nc2c1` [polymorphic form 2, 5-(ethylsulfonyl)-2-(naphthalen-2-yl)benzo[d]oxazole], the figures for the “polymorphic form after slurrying (XRPD)” value in data set [2] and in data set [2] (listed as Polymorphic form 2) were “converted into polymorphic form 1” and “polymorphic form 1 has converted to polymorphic form 2”, respectively.
